“And” between values parts separate entries of the source, which are not always exact repeats. Equal entries are not always repeated. The source made the active and inactive calls.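 Rule for the calls: active = compounds giving half or more protection of infected cells from virus-caused growth loss, again on retest; inactive = the rest.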
Tested on: CEM cells HIV-1 protection, formazan growth assay
Assay: NCI AIDS Antiviral Assay
Settings: for IC50: measured here: growth of uninfected CEM cells
How it was run: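 Human CEM cells, uninfected and HIV-1-infected, exposed to five drug concentrations; growth measured by soluble formazan assay and scored as percent protection from infection, with protecting compounds retested.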

SMILES | EC50 | IC50 | outcome
CCCCc1c2c(nc3c1CCc1cc4c(nc1-3)-c1nc3c(c(CCCC)c1CC4)CCC/C3=C\c1ccccc1)/C(=C/c1ccccc1)CCC2 | > 5.5 µM | > 5.5 µM | 
Cn1cnc([N+](=O)[O-])c1Sc1nnnn1-c1ccccc1 | > 224 µM | 10.7 µM | 
Cc1sc(/N=C/C2=C(O)CC(C)(C)CC2=O)nc1-c1ccccc1 | > 200 µM | 64.6 µM | 
COc1ccc(N=C2C(=Nc3ccc(OC)cc3)N(S(=O)(=O)c3ccccc3)C(=S)N2c2ccc(OC)cc2)cc1 | > 200 µM | > 200 µM | 
CCc1cccc(C(C)C)c1NC(=O)C(=O)Nn1c(=S)[nH]c2ccccc2c1=O | > 123 µM | > 123 µM | 
NC(=S)NNC(=O)CCC(=O)Nc1ccccc1Cl |  |  | inactive
CC(O)CCNc1nnc2c3ccccc3n(C)c2n1 (stereo not given) | > 200 µM | > 200 µM | 
Oc1ccc(O)c(CNc2ccc(C(O)C(F)(F)F)cc2)c1 (stereo not given) | > 200 µM | 18.6 µM | 
Cc1ccc2[nH]c3nc4cc(C)c(C)cc4nc3c2c1 | > 7.24 µM | > 7.24 µM | 
Cc1noc2c1NC(=O)OCC2 | 11 µM | 490 µM | 
NC(=O)C1c2ccccc2C=Cc2ccccc21 | > 200 µM | 155 µM | 
NCCCOCC(=O)O |  |  | inactive
CC1CCOn2c1nc1ccccc1c2=O (stereo not given) | > 33.1 µM | > 33.1 µM | 
COc1cc(/C=C2\CCC/C(=C\c3cc(OC)c(O)c(OC)c3)C2=O)cc(OC)c1O | > 200 µM | 0.933 µM | 
C=CCOC1CC(n2cnc3c(N)ncnc32)OC1CO (stereo not given) | > 200 µM | > 200 µM | 
COCCCNC(=O)C1=C(C)NC(C)=C(C(=O)NCCCOC)C1 | > 200 µM | 53.7 µM | 
COC1(OC)CC2C(=O)N(Cc3ccccc3)C1CC2S(=O)(=O)c1ccccc1 (stereo not given) |  |  | inactive
CC(C)(C)C1COP(=O)(C(C)(C)C)OC1 (stereo not given) | > 537 µM | 468 µM | 
C#[N+]CCOP(=O)(OCC1OC(n2cc(C)c(=O)[nH]c2=O)CC1N=[N+]=[N-])O[C@H]1CC[C@@]2(C)C(=CC[C@H]3[C@@H]4CC[C@H](C(C)CCCC(C)C)[C@@]4(C)CC[C@@H]32)C1 (stereo not given in full) | 4.17 µM and 10 µM | > 200 µM | 
CC(C)(C)OC(=O)NC(Cc1ccc(O)cn1)C(N)=O (stereo not given) | > 200 µM | > 200 µM | 
CCn1c2ccccc2c2cc(N=C3C(=O)N(C)c4ccccc43)ccc21 | > 200 µM | 10.7 µM | 
COC(=O)C(C(=O)C(=O)Nc1ccc([N+](=O)[O-])cc1[N+](=O)[O-])c1nc2ccc(Cl)cc2[nH]c1=O (stereo not given) | > 74.1 µM | 66.1 µM | 

SMILES | EC50 | IC50 | outcome
OC1C2CCN(CC2)C1CNC12CC3CC(CC(C3)C1)C2 (stereo not given) | > 1740 µM | 295 µM | 
OCC1OC(Oc2cc(O)cc(CCc3ccc(O)c(O)c3)c2)C(O)C(O)C1O (stereo not given) | > 617 µM | 41.7 µM | 
CC(C)c1cc(C(C)C)c(B(c2ccccc2)c2ccccc2)c(C(C)C)c1Br | > 200 µM | > 200 µM | 
CC12CC3CC(C1)CC(N=[N+]=[N-])(C3)C2 | > 70.8 µM | > 70.8 µM | 
CC12CCC(=O)N1c1cc([N+](=O)[O-])ccc1N2 (stereo not given) |  |  | inactive
COc1ccc(NS(=O)CCCc2ccccc2)cc1 (stereo not given) | > 200 µM | 16.6 µM | 
C=C(C)[C@@H]1CC[C@]2(COC(=O)CC(C)CC(=O)O)CC[C@]3(C)[C@H](CC[C@@H]4[C@@]5(C)CC[C@H](OC(=O)CC(C)CC(=O)O)C(C)(C)[C@@H]5CC[C@]43C)[C@@H]12 (stereo not given in full) | > 200 µM | 19.1 µM | 
CN(C)P(CCPc1ccccc1)N(C)C (stereo not given) | > 977 µM | > 977 µM | 
Cc1cc(C2(c3ccc(O)c(C)c3)OS(=O)(=O)c3ccccc32)ccc1O |  |  | inactive
CC(C)(C)OC(=O)NC1CCCCC1NC(=O)C(=O)NC1CCCCC1NC(=O)OC(C)(C)C (stereo not given) | > 100 µM | > 100 µM | 
CCOC(=O)c1nnsc1NC(=O)Nc1ccc(Cc2ccc(NC(=O)Nc3snnc3C(=O)OCC)cc2)cc1 | > 200 µM | > 200 µM | 
Cc1c(C)c2c(c(N)c1C#N)C(=O)N(Nc1ccccc1)C2=O | > 200 µM | 79.4 µM | 
CC/C=C\C/C=C\C1CC(=O)NCCCNCCCCN1 (stereo not given) |  |  | inactive
COP(=O)(OC)OC1C(=O)NC(=O)NC1=O | > 200 µM | > 200 µM | 
CC(C)(C)SSCC(N)C(=O)O (stereo not given) | > 200 µM | > 200 µM | 
COCCOc1cc(C)cc(/C=C(C)/C=C/C2=C(C)CCCC2(C)C)n1 |  |  | inactive
CCOC(=O)c1c(Br)c(-c2ccc([N+](=O)[O-])cc2)c(Br)n1C | > 200 µM | 39.8 µM | 
N#Cc1nc(-c2cccc(-c3nc(C#N)c(N)o3)n2)oc1N |  |  | inactive
CC(=O)OCC(C)(COC(C)=O)N1C(=O)C2C3c4ccccc4C(c4ccccc43)C2C1=O (stereo not given) | > 200 µM | > 200 µM | 
CCc1c(OC)oc(CCCCCCCCCC(C)C(C)=O)c(C)c1=O (stereo not given) | > 25.1 µM | 0.0372 µM | 
O=C(O)c1cccc(OCCOc2cccc(C(=O)O)c2[N+](=O)[O-])c1[N+](=O)[O-] | > 200 µM | > 200 µM | 
O=C(O)CCN(CCCN(CCC(=O)O)CCC(=O)O)CCC(=O)O | > 575 µM | 8.13 µM | 

SMILES | EC50 | IC50 | outcome
COc1cccc(OC)c1C(=O)OCc1ccccc1 | > 95.5 µM | > 95.5 µM | 
N=C(OC1CCCCC1)N1CCOCC1 | > 200 µM | > 200 µM | 
C[C@H](COCP(=O)(O)O)n1cnc2c(N)ncnc21 | > 200 µM | > 200 µM | 
CC1CC/C(=C\c2ccc(F)cc2)C(=O)/C1=C/c1ccc(F)cc1 (stereo not given) | > 19.5 µM | 9.33 µM | 
COC(=O)C(C)[P+](c1ccccc1)(c1ccccc1)c1ccccc1 (stereo not given) | > 200 µM | 5.75 µM | 
CC1(C)OC2OC(C(=O)c3ccccc3)C3OC(C)(C)OC3C2O1 (stereo not given) |  |  | inactive
CC(C)(C)OC(=O)C1CC[C@@H](CC(=O)Oc2ccc([N+](=O)[O-])cc2)N1 (stereo not given in full) | > 200 µM | > 200 µM | 
Cc1c(COC(=O)NC(C)C)c(COC(=O)NC(C)C)c2n1CS(=O)(=O)C2 | > 200 µM | > 200 µM | 
COc1ccc2c(c1)OC(OC)(c1ccccc1)C(O)(OC)C2=O (stereo not given) | > 200 µM | 15.1 µM | 
Cc1cc2ncc3c(=O)n(NS(=O)(=O)c4ccc(N)cc4)ccc3n2n1 | > 200 µM | > 200 µM | 
CCCc1c[nH]c(-c2ccc(-c3cc(CCC)c(C=O)[nH]3)s2)c1 | > 11.5 µM | > 11.5 µM | 
CCOC(=O)C1([N+](=O)[O-])[C@@H]2CCCC[C@@H]21 (stereo not given in full) | > 316 µM | > 316 µM | 
Cc1c(Cc2ccc(Cl)cc2)c(=O)[nH]c(=O)n1C | > 97.7 µM | > 97.7 µM | 
O=C1OC(c2ccccc2)(c2ccccc2)c2ccc3ccc(F)cc3c21 |  |  | inactive
O=C(CCc1n[nH]c(=S)o1)Nc1ccc(Cl)cc1Cl | > 31.6 µM | > 31.6 µM | 
CCN(CC)CC(C)C1NS(=O)(=O)c2ccccc21 (stereo not given) | > 200 µM | > 200 µM | 
c1ccc(SCc2ccc3c(c2)OCO3)cc1 | > 77.6 µM | > 77.6 µM | 
COc1c2c(cc3ccc(=O)oc13)CCO2 | > 204 µM | > 204 µM | 
CSc1nc(=O)c(C#N)c(-c2ccccc2)n1C1OC(COC(C)=O)C(OC(C)=O)C(OC(C)=O)C1OC(C)=O (stereo not given) | > 200 µM | 93.3 µM | 
O=[N+]([O-])c1ccc2c(c1)nc1n2C(c2c(F)cccc2F)SC1 (stereo not given) | 186 µM | 195 µM | 
Cc1ccc(O)c(N=Nc2ccc(S(=O)(=O)O)cc2)n1 |  |  | inactive
CC(C)(C)N/N=C(\C(=O)Nc1ccc([N+](=O)[O-])cc1[N+](=O)[O-])c1nc2ccc([N+](=O)[O-])cc2[nH]c1=O | > 14.5 µM | > 14.5 µM | 

SMILES | EC50 | IC50 | outcome
O=C(N/N=C\c1ccc([N+](=O)[O-])s1)c1ccncc1 | > 200 µM | 8.71 µM | 
CC1=NC2c3c(-c4ccc(Cl)cc4)cn(-c4ccc(C)cc4)c3N=CN2N1 (stereo not given) | > 100 µM | > 100 µM | 
CC1CC(C#N)=C2NCCN2C1=O (stereo not given) | > 200 µM | > 200 µM | 
CC1=CC[C@@H]2C(=O)C=CC=C[C@H]12.[C-]#[O+].[C-]#[O+].[C-]#[O+].[Fe] | > 316 µM | 178 µM | 
CC(=O)Nc1c(C#N)c2n(c1C(=O)Nc1ccc(C)cc1)CCC2 | > 100 µM | > 100 µM | 
O=C(O)C1C2c3ccccc3C(O)C1(C(=O)O)c1ccccc12 (stereo not given) | > 407 µM | > 407 µM | 
O=c1[nH]c(Cc2ccccc2)nc2c1sc1nc3ccccc3n12 | > 200 µM | > 200 µM | 
C[n+]1c(-c2ccc(/C=N\NC(=O)N/N=C/c3ccc(-c4cn5ccccc5[n+]4C)cc3)cc2)cn2ccccc21 | 36.3 µM | 47.9 µM | 
O=c1nc(N2CCCC2)oc2cc3ccccc3cc12 | > 200 µM | 89.1 µM | 
CCC12C=CCN3CC[C@]4(C(=C(C(=O)OC)[C@@H]1Nc1ccn(C5OC(COC(C)=O)C(OC(C)=O)C5OC(C)=O)c(=O)n1)Nc1ccccc14)C32 (stereo not given in full) | > 26.9 µM | 3.63 µM | 
c1ccc2c(c1)oc1cc3c(cc12)nnc1cccn13 | > 200 µM | > 200 µM | 
Cc1c(C)c(C)c(-n2[nH]c(=O)n(C)c2=O)c(C)c1C | > 200 µM | > 200 µM | 
CCCCCCCCCCCCCCCC(=O)Nc1ccn(C2CCC(COP(=O)(O)OCC3CCC(n4cnc5c(=O)[nH]cnc54)O3)O2)c(=O)n1 (stereo not given) | 0.759 µM | > 100 µM | 
Clc1ccc(NC2=NCCN=C(Nc3ccc(Cl)c(Cl)c3)SS2)cc1Cl | > 11.2 µM | > 11.2 µM | 
CNC(=S)SSC(=S)NCCNC(=S)SSC(=S)NC |  |  | inactive
CCCCCCCCCCCCCCCCOCC(Cl)CP(=O)(O)OP(=O)(O)OCC1OC(n2cnc3c(N)ncnc32)C(O)C1O (stereo not given) | > 100 µM | > 100 µM | 
N#CC(NCCc1ccccc1)c1ccccc1 (stereo not given) |  |  | inactive
Nc1cccc(S(=O)(=O)N(CC(=O)O)c2ccccc2)c1 |  |  | inactive
Cc1cn(COCCSCc2ccccc2)c(=O)[nH]c1=O | 58.9 µM | > 200 µM | 
Cc1cc(C)nc(NS(=O)(=O)c2ccc(Nc3c4ccccc4nc4c(C(=O)NC(CO)(CO)CO)cccc34)cc2)n1 | > 200 µM | 9.33 µM | 
CCOC(=O)C1C(NC(N)=O)N(Cc2ccccc2)C(=O)N1Cc1ccccc1 (stereo not given) | > 447 µM | > 447 µM | 
